Assay results: article PMC9085577, “Discovery of a Potent and Orally Active Dual GPBAR1/CysLT1R Modulator for the Treatment of Metabolic Fatty Liver Disease” (Frontiers in Pharmacology, 2022)
In brackets after ≈: the same amount, converted by molar mass. Read-outs that look alike come from different tables or passages of the source.

Experiments:
human GPBAR1 = target: T1, human GPBAR1 (Homo sapiens, UniProt Q8TDU6); experiment: GPBAR1 CRE-luciferase reporter transactivation assay in HEK-293T cells; type: cell-based; conditions: HEK-293T; compound 10 µM relative to TLCA (10 μM) as 100, CRE transactivation, HEK293T cells; read-out: GPBAR1 Eff (%) maximum efficacy
T1 construct: expressed in transfected cells; host or cells: HEK-293T cells, transient transfection (Fugene HD)
T1 sequence (Q8TDU6 1-330): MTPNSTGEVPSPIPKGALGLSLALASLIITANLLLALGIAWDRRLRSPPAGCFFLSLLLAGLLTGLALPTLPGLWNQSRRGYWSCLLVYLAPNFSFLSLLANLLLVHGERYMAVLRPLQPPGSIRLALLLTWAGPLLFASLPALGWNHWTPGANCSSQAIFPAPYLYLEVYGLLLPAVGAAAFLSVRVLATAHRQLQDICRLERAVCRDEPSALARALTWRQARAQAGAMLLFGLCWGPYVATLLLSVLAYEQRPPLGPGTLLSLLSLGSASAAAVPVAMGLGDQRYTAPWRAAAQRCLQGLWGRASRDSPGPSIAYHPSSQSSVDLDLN
Protocol: GPBAR1. […] At 18 h post stimulations, cellular lysates were assayed for luciferase and Renilla activities using the Dual-Luciferase Reporter assay system (E1980, Promega Madison WI). Luminescence was measured using Glomax 20/20 luminometer (Promega, Madison WI). Luciferase activities were normalized with Renilla activities.
Agonistic activities of compounds on GPBAR1 were compared to TLCA, which was set as 100%.

Human CysLT1 (LTD4) = target: T2, Human CysLT1 (LTD4) (Homo sapiens, UniProt Q9Y271); experiment: Human CysLT1 (LTD4) antagonist effect cellular functional assay (Ca2+ fluorescence, Eurofins Cerep-Panlabs); type: cell-based; conditions: for IC50: 0.1 nM LTD4
T2 construct: Eurofins Cerep-Panlabs (France), contract assay
T2 sequence (Q9Y271 1-337): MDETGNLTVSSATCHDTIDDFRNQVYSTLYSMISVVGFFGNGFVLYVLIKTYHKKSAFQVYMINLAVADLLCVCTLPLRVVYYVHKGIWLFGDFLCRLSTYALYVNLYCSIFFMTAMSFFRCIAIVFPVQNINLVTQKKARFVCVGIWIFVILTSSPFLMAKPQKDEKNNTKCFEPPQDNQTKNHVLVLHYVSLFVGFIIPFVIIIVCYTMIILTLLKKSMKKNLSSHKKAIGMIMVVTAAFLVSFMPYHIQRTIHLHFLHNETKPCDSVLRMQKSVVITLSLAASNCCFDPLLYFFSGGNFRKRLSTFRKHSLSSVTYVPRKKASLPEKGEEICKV
Protocol: Human CysLT1 (LTD4) (h) (antagonist effect) Cellular Functional Assay. These assays were performed at Eurofins Cerep-Panlabs (France). The cells were suspended in DMEM buffer (Invitrogen) and then distributed in microplates at a density of 3.104 cells/well. […] Thereafter, the assay plates are positioned in a microplate reader (CellLux, PerkinElmer), which was used for the addition of the test compound or HBSS buffer, then 5 min later, 0.1 nM LTD4 or HBSS buffer (basal control), and measured the changes in fluorescence intensity, which varies proportionally to the free cytosolic Ca^2+-ion concentration.

[1] = parameters: method as in Fiorillo et al., 2021; conditions: ref Fiorillo et al., 2021; cited from earlier work
[2] = parameters: method as in Fiorillo et al., 2021; conditions: ref Fiorillo et al., 2021; cited from earlier work; remark: listed apart in the source
[3] = parameters: method as in Fiorillo et al., 2021; conditions: pH 7.4; ref Fiorillo et al., 2021; cited from earlier work
[4] = parameters: method as in Fiorillo et al., 2021; conditions: aqueous, pH 7.4; ref Fiorillo et al., 2021; cited from earlier work
[5] = antagonist effect, read-out: CysLT1R IC50

Row | Emax (human GPBAR1) [%] | CysLT1R efficacy (percent inhibition of the control response to 0.1 nM LTD4) (Human CysLT1 (LTD4); antagonist effect) [%] | IC50 (Human CysLT1 (LTD4); [5]) [µM] | Structure (SMILES) | also measured
1 | 56.9 ± 7.8 |  |  | COC(=O)c1cccc(-c2ccc(OCc3ccc4ccccc4n3)cc2)c1 [Compound 1, Methyl 4'-(quinolin-2-ylmethoxy)-[1,1′-biphenyl]-3-carboxylate] | 
2 | 2.1 ± 0.06 | 59 ± 3.6 |  | OCc1cccc(-c2ccc(OCc3ccc4ccccc4n3)cc2)c1 [Compound 3, (4'-(quinolin-2-ylmethoxy)-[1,1′-biphenyl]-3-yl)-methanol] | 
3 | 13.5 ± 1 |  |  | COC(=O)c1ccc(-c2ccc(OCc3ccc4ccccc4n3)cc2)cc1 [Compound 4, Methyl 4'-(quinolin-2-ylmethoxy)-[1,1′-biphenyl]-4-carboxylate] | 
4 | 36.7 ± 3 |  |  | O=C(O)c1ccc(-c2ccc(OCc3ccc4ccccc4n3)cc2)cc1 [Compound 5, 4'-(quinolin-2-ylmethoxy)-[1,1′-biphenyl]-4-carboxylic acid] | 
5 | 64.9 ± 13 | 0.8 ± 1.5 |  | OCc1ccc(-c2ccc(OCc3ccc4ccccc4n3)cc2)cc1 [Compound 6, (4'-(quinolin-2-ylmethoxy)-[1,1′-biphenyl]-4-yl)-methanol] | 
6 | 20.5 ± 2.4 | 76 ± 9.6 | 1.68 ± 0.28 | COC(=O)CCCCOc1cccc(OCc2ccc3ccccc3n2)c1 [Compound 7] | 
7 | 12 ± 1.3 | 99.6 ± 2.0 | 0.9 ± 0.5 | O=C(O)CCCCOc1cccc(OCc2ccc3ccccc3n2)c1 [Compound 8] | 
8 | 30.8 ± 7.5 | 106.9 ± 1.6 | 0.36 ± 0.58 | OCCCCCOc1cccc(OCc2ccc3ccccc3n2)c1 [Compound 9, 5-(3-(quinolin-2-ylmethoxy)phenoxy)-pentan-1-ol] | 
9 | 20.2 ± 4.5 | 92.1 ± 3.4 | 1.55 ± 0.43 | COC(=O)CCCOc1cccc(OCc2ccc3ccccc3n2)c1 [Compound 10, Methyl 4-(3-(quinolin-2-ylmethoxy)phenoxy)-butanoate] | 
10 | 18.3 ± 4.8 | 92.8 ± 2.3 |  | O=C(O)CCCOc1cccc(OCc2ccc3ccccc3n2)c1 [Compound 11, 4-(3-(quinolin-2-ylmethoxy)phenoxy)-butanoic acid] | 
11 | 12.8 ± 3.3 | 108.6 ± 1.8 | 0.31 ± 0.24 | OCCCCOc1cccc(OCc2ccc3ccccc3n2)c1 [Compound 12, 4-(3-(quinolin-2-ylmethoxy)phenoxy)-butan-1-ol] | 
12 |  |  |  | CCCCCC(O)c1cccc(OCc2ccc3ccccc3n2)c1 (stereo not drawn) [REV5901, alpha-pentyl-3-[2-quinolinylmethoxy] benzyl alcohol] | IC50 (Human CysLT1 (LTD4); CysLT1R IC50, antagonist effect): 2.5 ± 1.2 µM; S9 fraction Clint [1]: 40 μl/min/mg protein; S9 fraction t1/2 [1]: 57 min; Microsomes Clint [2]: 63 μl/min/mg protein; Microsomes t1/2 [2]: 37 min; LogD [3]: 3.1; Solubility [4]: 39.3 µM (≈ 13.2 µg/mL)
